According to patent EP0647618A1, “NEW NON IONIC IODINE-CONTAINING DIMERS USEFUL AS X-RAY CONTRAST AGENTS, METHOD FOR THE PREPARATION THEREOF, AND GALENICAL COMPOSITIONS CONTAINING THEM” (CENTRO INVESTIGACION JUSTESA IMAGEN S.A., priority 1993, dated 1994):

Tests used:
Format in all cases: physicochemical
physchem = conditions: water, 20°C (Table II); read-out: SOLUBILITY IN WATER at 20°
Protocol: On the other hand, radiologists need compounds with a wide range of uses: for example, angiography, urography, myelography, cisternography, lymphography, cardiography and gastrography. The products according to this invention fulfil the requirements for the above uses, as they have high water solubility, normally higher than 60% (w/v), which, in some cases, is as high as 100% at 20°C, without showing any tendency to crystallize. They also have a very low general toxicity, stated as the average lethal dose for the rat, DL₅₀.

[1] = Viscosity of aqueous solution at 300 mg I/ml; conditions: 300 mg I/ml (Table II)
[2] = Osmolality of aqueous solution at 300 mg I/ml; conditions: 300 mg I/ml (Table II)

SMILES | solubility (physchem) | VISCOSITY mPas (37°C) at 300 mg I/ml [1] | OSMOLALITY mOsm/kg at 300 mg I/ml [2]
O=C(CN(CC(=O)Nc1c(I)c(C(=O)NCC(O)CO)c(I)c(C(=O)NCC(O)CO)c1I)CC(O)CO)Nc1c(I)c(C(=O)NCC(O)CO)c(I)c(C(=O)NCC(O)CO)c1I (stereo not shown) [ICJ-1092, N,N'-Bis-{3,5-bis-[N-(2,3-dihydroxypropyl)carbamoyl]-2,4,6-triiodophenyl}-3-(2,3-dihydroxypropyl)-3-azapentanediamide] | > 600 mg/mL | 10.3 mPas | 193 mOsm/kg
O=C(CN(CCO)CC(=O)Nc1c(I)c(C(=O)NCC(O)CO)c(I)c(C(=O)NCC(O)CO)c1I)Nc1c(I)c(C(=O)NCCO)c(I)c(C(=O)NCCO)c1I (stereo not shown) [ICJ-1292, N-{3,5-Bis-[N-(2,3-dihydroxypropyl)carbamoyl]-2,4,6-triiodophenyl}-N'-{3,5-bis-[N-(2-hydroxyethyl)carbamoyl]-2,4,6-triiodophenyl}-3-(2-hydroxyethyl)-3-azapentanediamide] | < 600 mg/mL |  | 
O=C(CN(CCO)CC(=O)Nc1c(I)c(C(=O)NCCO)c(I)c(C(=O)NCCO)c1I)Nc1c(I)c(C(=O)NCCO)c(I)c(C(=O)NCCO)c1I [ICJ-1392, N,N'-Bis-{3,5-bis-[N-(2-hydroxyethyl)carbamoyl]-2,4,6-triiodophenyl}-3-(2-hydroxyethyl)-3-azapentanedimide] | < 600 mg/mL |  | 
O=C(CN(CC(=O)Nc1c(I)c(C(=O)NCC(O)CO)c(I)c(C(=O)NCC(O)CO)c1I)CC(O)CO)Nc1c(I)c(C(=O)NCCO)c(I)c(C(=O)NCCO)c1I (stereo not shown) [ICJ-1492, N-{3,5-bis-[N-(2,3-dihydroxypropyl)carbamoyl]-2,4,6-triiodophenyl}-N'-{3,5-bis-[N-(2-hydroxyethyl)carbamoyl]-2,4,6-triiodophenyl)-3-(2,3-dihydroxypropyl)-3-azapentanediamide] | < 600 mg/mL | 9.5 mPas | 137 mOsm/kg
CN(C(=O)CN(CCO)CC(=O)Nc1c(I)c(C(=O)NCC(O)CO)c(I)c(C(=O)NCC(O)CO)c1I)c1c(I)c(C(=O)NCCO)c(I)c(C(=O)NCCO)c1I (stereo not shown) [ICJ-2192, N-{3,5-Bis-[N-(2,3-dihydroxpropyl)carbamoyl]-2,4,6-triiodophenyl}-N'-methyl-N'-{3,5-bis-[N-(2-hydroxyethyl)carbamoyl]-2,4,6-triiodophenyl}-3-(2-hydroxyethyl)-3-azapentanediamide] | < 600 mg/mL |  | 
CN(C(=O)CN(CCO)CC(=O)N(C)c1c(I)c(C(=O)NCCO)c(I)c(C(=O)NCCO)c1I)c1c(I)c(C(=O)NCCO)c(I)c(C(=O)NCCO)c1I [ICJ-2392, N,N'-Bis-{3,5-bis-[N-(2-hydroxethyl)carbamoyl]-2,4,6-triiodophenyl}-N,N'-dimethyl-3-(2-hydroxyethyl)-3-azapentanedimide] | < 600 mg/mL |  | 
CN(C(=O)CN(CCO)CC(=O)Nc1c(I)c(C(=O)NCCO)c(I)c(C(=O)NCCO)c1I)c1c(I)c(C(=O)NCC(O)CO)c(I)c(C(=O)NCC(O)CO)c1I (stereo not shown) [ICJ-2492, N-{3,5-Bis-[N-(2,3-dihydroxpropyl)carbamoyl]-2,4,6-triiodophenyl}-N-methyl-N'-{3,5-bis-[N-(2-hydroxyethyl)carbamoyl]-2,4,6-triiodophenyl}-3-(2-hydroxyethyl)-3-azapentanediamide] | < 600 mg/mL |  | 
CN(CC(=O)Nc1c(I)c(C(=O)NCC(O)CO)c(I)c(C(=O)NCC(O)CO)c1I)CC(=O)Nc1c(I)c(C(=O)NCC(O)CO)c(I)c(C(=O)NCC(O)CO)c1I (stereo not shown) [ICJ-2792, N,N'-Bis-{3,5-bis-[N-(2,3-dihydroxypropyl)carbamoyl]-2,4,6-triiodophenyl}-3-methyl-3-azapentanediamide] | < 600 mg/mL |  | 
CN(CC(=O)N(C)c1c(I)c(C(=O)NCC(O)CO)c(I)c(C(=O)NCC(O)CO)c1I)CC(=O)N(C)c1c(I)c(C(=O)NCC(O)CO)c(I)c(C(=O)NCC(O)CO)c1I (stereo not shown) [ICJ-2992, N,N'-Bis-{3,5-bis-[N-(2,3-dihydroxypropyl)carbamoyl]-2,4,6-triiodophenyl}-N,N'-dimethyl-3-methyl-3-azapentanediamide] | > 600 mg/mL |  | 
